The values that follow come from ChEMBL document CHEMBL3593216, “Discovery of antitubercular 2,4-diphenyl-1H-imidazoles from chemical library repositioning and rational design” (2015).

In brackets after ≈: the same amount, converted by molar mass.

The test system of the first assay is Mycobacterium tuberculosis. In words: Antitubercular activity against recombinant Mycobacterium tuberculosis H37Rv expressing Vibrio harveyii luciferase gene with acetamidase promoter assessed as prevention of metabolic recovery incubated for 10 days in anaerobic environment followed by 28 hrs recovery in aerobic environment by low-oxygen recovery assay.
Conditions: not given
Format: functional.
Take `COc1cc(-c2nc(-c3cccc(C(F)(F)F)c3)c[nH]2)cc(C(F)(F)F)c1`: the MIC90 (commonly an inhibitory concentration at the 90% level, which refers to growth in some studies and to a panel of isolates in others) stood at 63.7 µM.

Consider `FC(F)(F)c1cccc(-c2c[nH]c(-c3cccc(C(F)(F)F)c3)n2)c1`, for which the MIC90 was found to be 25.4 µM.

As to `FC(F)(F)c1cccc(-c2c[nH]c(-c3cc(C(F)(F)F)cc(C(F)(F)F)c3)n2)c1`, the MIC90 stood at 11.3 µM.

Take `Fc1cc(-c2nc(-c3cccc(C(F)(F)F)c3)c[nH]2)cc(C(F)(F)F)c1`: the MIC90 was 17.6 µM.

Regarding `Cn1cc(-c2cccc(C(F)(F)F)c2)nc1-c1cccc(C(F)(F)F)c1`, the MIC90 came out at 50.7 µM.

Another assay relates to Mycobacterium tuberculosis. Briefly: Antitubercular activity against Mycobacterium tuberculosis H37Rv ATCC 27294 incubated up to 7 days measured on day 7 by microplate Alamar Blue assay. Format: functional. The conditions noted are these: H37Rv ATCC 27294, 168 h.
The compound `O=[N+]([O-])c1cccc(-c2nc(-c3ccccc3)c[nH]2)c1` registered an MIC90 of 60.6 µM (≈ 16.1 µg/mL).

For the compound `c1ccc(-c2c[nH]c(-c3ccsc3)n2)cc1`, the MIC90 came out at 107 µM (≈ 24.3 µg/mL).

`FC(F)(F)c1cccc(-c2nc(-c3ccccc3)c[nH]2)c1` gave an MIC90 of 30.6 µM (≈ 8.82 µg/mL).

`COc1cc(-c2nc(-c3cccc(C(F)(F)F)c3)c[nH]2)cc(C(F)(F)F)c1`: the MIC90 is 7.3 µM (≈ 2.82 µg/mL).

Take `FC(F)(F)c1cccc(-c2c[nH]c(-c3cccc(C(F)(F)F)c3)n2)c1`: the MIC90 was found to be 1.7 µM (≈ 0.606 µg/mL).

`NNC(=O)c1ccncc1` [ISONIAZID] had an MIC90 of 0.1 µM (≈ 0.0137 µg/mL).

On to `Clc1cccc(-c2nc(-c3ccccc3)c[nH]2)c1`, for which the MIC90 was determined as 60.4 µM (≈ 15.4 µg/mL).

For the compound `FC(F)(F)c1cccc(-c2c[nH]c(-c3cc(C(F)(F)F)cc(C(F)(F)F)c3)n2)c1`, the MIC90 is 7.7 µM (≈ 3.27 µg/mL).

`COc1ccc(-c2nc(-c3ccccc3)c[nH]2)cc1` returned an MIC90 of 119 µM (≈ 29.9 µg/mL).

`FC(F)(F)c1ccc(-c2nc(-c3ccccc3)c[nH]2)cc1` showed an MIC90 of 48.9 µM (≈ 14.1 µg/mL).

For the compound `COc1cccc(-c2nc(-c3ccccc3)c[nH]2)c1OC`, the MIC90 was determined as 55.2 µM (≈ 15.5 µg/mL).

In the case of `c1ccc(-c2c[nH]c(-c3ccncc3)n2)cc1`, the MIC90 was more than 128 µM.

For `Cc1[nH]c(-c2cccc(C(F)(F)F)c2)nc1-c1cccc(C(F)(F)F)c1`, the MIC90 came out at 14 µM (≈ 5.18 µg/mL).

Consider `FC(F)(F)c1ccc(-c2c[nH]c(-c3ccccc3)n2)cc1`, for which the MIC90 is more than 128 µM.

As to `Clc1cccc(-c2c[nH]c(-c3ccccc3)n2)c1`, the MIC90 is 60.3 µM (≈ 15.4 µg/mL).

In turn, `Cc1ccc(-c2nc(-c3ccccc3)c[nH]2)cc1` gave an MIC90 of 124 µM (≈ 29.1 µg/mL).

Regarding `COc1ccc(-c2csc(Nc3ccc(C)cc3)n2)cc1`, the MIC90 was found to be 15.6 µM (≈ 4.62 µg/mL).

Compound `COc1ccccc1-c1nc(-c2ccccc2)c[nH]1` had an MIC90 of more than 128 µM.

`FC(F)(F)c1cccc(-c2c[nH]c(-c3ccc(Cl)cc3)n2)c1` showed an MIC90 of 29.8 µM (≈ 9.62 µg/mL).

The compound `c1ccc(-c2c[nH]c(C3CCCCC3)n2)cc1` returned an MIC90 of 125 µM (≈ 28.2 µg/mL).

`c1ccc(-c2c[nH]c(-c3ccccc3)n2)cc1` came in with an MIC90 of 128 µM (≈ 28.1 µg/mL).

Compound `COc1ccc(-c2c[nH]c(-c3ccccc3)n2)cc1` gave an MIC90 of 82.4 µM (≈ 20.6 µg/mL).

With `Oc1ccc(-c2nc(-c3ccccc3)c[nH]2)cc1`, the MIC90 is more than 128 µM.

Turning to `Fc1cc(-c2nc(-c3cccc(C(F)(F)F)c3)c[nH]2)cc(C(F)(F)F)c1`, the MIC90 is 6 µM (≈ 2.25 µg/mL).

`Clc1ccc(-c2c[nH]c(-c3ccccc3)n2)cc1`: the MIC90 turned out to be 59.5 µM (≈ 15.2 µg/mL).

On to `FC(F)(F)Oc1cccc(-c2nc(-c3ccccc3)c[nH]2)c1`, for which the MIC90 stood at 35.5 µM (≈ 10.8 µg/mL).

As to `O=[N+]([O-])c1ccc(-c2c[nH]c(-c3ccccc3)n2)cc1`, the MIC90 was more than 128 µM.

As to `Cn1cc(-c2cccc(C(F)(F)F)c2)nc1-c1cccc(C(F)(F)F)c1`, the MIC90 came out at 7.9 µM (≈ 2.93 µg/mL).

The compound `FC(F)(F)c1cccc(-c2c[nH]c(-c3ccccc3)n2)c1` yielded an MIC90 of 37 µM (≈ 10.7 µg/mL).

Turning to `COc1cccc(-c2nc(-c3ccccc3)c[nH]2)c1`, the MIC90 was found to be 73.7 µM (≈ 18.4 µg/mL).

`COc1cccc(-c2c[nH]c(-c3ccccc3)n2)c1` gave an MIC90 of 88.4 µM (≈ 22.1 µg/mL).

With `COc1ccc(-c2csc(Nc3cc(Cl)cc(Cl)c3)n2)cc1`, the MIC90 came out at 13 µM (≈ 4.57 µg/mL).

Take `CO[C@H]1/C=C/O[C@@]2(C)Oc3c(C)c(O)c4c(O)c(c(/C=N/N5CCN(C)CC5)c(O)c4c3C2=O)NC(=O)/C(C)=C\C=C\[C@H](C)[C@H](O)[C@@H](C)[C@@H](O)[C@@H](C)[C@H](OC(C)=O)[C@@H]1C` [RIFAMPIN]: the MIC90 was 0.05 µM (≈ 0.0411 µg/mL).

Regarding `Clc1ccc(-c2nc(-c3ccccc3)c[nH]2)cc1`, the MIC90 came out at 59.8 µM (≈ 15.2 µg/mL).
